The values that follow come from patent publication US10112944B2, “Heterocyclic compounds useful as inhibitors of TNF” (BRISTOL-MYERS SQUIBB COMPANY, priority 2015, dated 2018).

Some results are limits rather than exact numbers.

Usually IC50 stands for the midpoint of a concentration-inhibition curve. A high value points to a need for much substance.

In this assay the target is TNFα (Homo sapiens (Human), UniProt P01375). Nature of the assay: TNF induced HEK-Blue assay. Format: cell-based. The conditions noted are these: HEK-Blue-CD40L cells, TNFα 0.5 ng/ml, NF-κB-driven secreted alkaline phosphatase reporter, 18 h. As for the experimental part: TNF or CD40L-Induced HEK-Blue Assay
Sequence of TNFα (P01375 77-233): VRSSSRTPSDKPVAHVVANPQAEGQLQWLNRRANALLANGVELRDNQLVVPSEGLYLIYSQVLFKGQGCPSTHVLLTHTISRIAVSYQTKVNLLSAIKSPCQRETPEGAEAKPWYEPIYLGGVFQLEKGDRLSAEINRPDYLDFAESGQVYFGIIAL
Test compounds serially diluted in DMSO were plated in an assay plate (Labcyte, Cat. #LP-0200) at final concentrations ranging from 0.004 μM to 25 μM. TNFα (final concentration 0.5 ng/ml) or CD40L (final concentration 30 ng/ml) in assay buffer [DMEM, 4.5 g/l glucose (Gibco, Cat. 21063-029), 10% FBS (Sigma, F4135), 1% Penicillin-Streptomycin (Gibco, Cat. 15140-122), 1% Anti-Anti (Gibco, Cat. 15240-112) and 2 mM L-glutamine (Gibco, Cat. 25030-081)] was then added to the assay plate. After a 30 minute pre-incubation at 37° C. and 5% CO2, HEK-Blue-CD40L cells (InvivoGen, Cat. Code hkb-cd40) containing a NF-κB-driven secreted alkaline phosphatase reporter gene were seeded into the assay plate at a density of 20,000 cells per well. This plate was then incubated for 18 h at 37° C. and 5% CO2. Secreted alkaline phosphatase expression was measured using QUANTI-Blue (InvivoGen, Cat. Code rep-qbl) according to manufacturer's specifications and the assay plate was read on a PerkinElmer Envision at 620 nm.
Inhibition data for the test compound over a range of concentrations was plotted as percentage inhibition of the test compound (100%=maximum inhibition). IC50 values were determined after correcting for background [(sample read−mean of low control)/(mean of high control−mean of low control)] where by the low control is DMSO without stimulation and high control is DMSO with stimulation. The IC50 is defined as the concentration of test compound which produces 50% inhibition and was quantified using the 4 parameter logistic equation to fit the data.
`Cc1ccc(OC(F)F)c(N2CCCc3nc4ccc(-c5cnc(N6CCOCC6)nc5)cn4c32)c1` [Example 19, 4-(5-(1-(2-(Difluoromethoxy)-5-methylphenyl)-1,2,3,4-tetrahydroimidazo [1,2-a:5,4-b′]dipyridin-8-yl)pyrimidin-2-yl)morpholine] gave an IC50 below 1 µM.

`Cc1ccc(C)c(N2CCCc3nc4ccc(-c5cnc(N6CCOCC6)nc5)cn4c32)c1` [Example 14, 4-(5-(1-(2,5-Dimethylphenyl)-1,2,3,4-tetrahydroimidazo[1,2-a:5,4-b′]dipyridin-8-yl)pyrimidin-2-yl)morpholine] returned an IC50 below 1 µM.

For `COc1ccc(-c2cn3c4c(nc3cc2C)CCCN4c2ccccc2OC(F)F)cn1` [Example 2, 1-(2-(Difluoromethoxy)phenyl)-8-(6-methoxypyridin-3-yl)-7-methyl-1,2,3,4-tetrahydroimidazo[1,2-a:5,4-b′]dipyridine], the IC50 was below 1 µM.

Consider `COc1ccc(-c2ccc3nc4c(n3c2)N(c2nccc3ccccc23)CCC4)cn1` [Example 8, 1-(Isoquinolin-1-yl)-8-(6-methoxypyridin-3-yl)-1,2,3,4-tetrahydroimidazo [1,2-a:5,4-b′]dipyridine], for which the IC50 was in the range of 1 to 10 µM.

The molecule `COc1ccc(-c2ccc3nc4c(n3c2)N(c2cc(Cl)ccc2C)CCC4)cn1` [Example 32, 1-(5-Chloro-2-methylphenyl)-8-(6-methoxypyridin-3-yl)-1,2,3,4-tetrahydroimidazo[1,2-a:5,4-b′]dipyridine] gave an IC50 below 1 µM.

In the case of `CC(C)(O)c1ncc(-c2ccc3nc4c(n3c2)N(c2ccccc2OC(F)F)CCC4)cn1` [Example 34, 2-(5-(1-(2-(Difluoromethoxy)phenyl)-1,2,3,4-tetrahydroimidazo[1,2-a:5,4-b′]dipyridin-8-yl)pyrimidin-2-yl)propan-2-ol], the IC50 is below 1 µM.

Take `COc1ccc(-c2cn3c4c(nc3cc2C)CCCN4c2cc(C)ccc2C)cn1` [Example 1, 1-(2,5-Dimethylphenyl)-8-(6-methoxypyridin-3-yl)-7-methyl-1,2,3,4-tetrahydroimidazo [1,2-a:5,4-b′]dipyridine]: the IC50 was in the range of 1 to 10 µM.

`COc1ccc(-c2ccc3nc4c(n3c2)N(c2ccc(C)cc2C)CCC4)cn1` [Example 30, 1-(2,4-Dimethylphenyl)-8-(6-methoxypyridin-3-yl)-1,2,3,4-tetrahydroimidazo[1,2-a:5,4-b′]dipyridine] came in with an IC50 of 1 to 10 µM.
